Data set [1] concerns histomoniasis. As to conditions: use through the whole growth cycle; cited from earlier work.
Data set [2] has as its system Histomonas meleagridis strain HNA.CO.A.L1. The data set can be described thus: Example 1: turkeys inoculated intracloacally with Histomonas meleagridis, mortality and lesions. As to conditions: low dose (500 ppm), mortality. Type of data set: in vivo, turkey.
In data set [3] the test system is Histomonas meleagridis strain HNA.CO. A.L1. The data set can be described thus: Example 2: intracloacal Histomonas meleagridis challenge, seeder and contact birds, mortality and lesions. Type of data set: in vivo, turkey. The settings on record: lowest dose (250 ppm paromomycin sulphate), seeder birds mortality.
The subject of data set [4] is histomoniasis. The settings on record: 200 and 400 ppm in broilers; cited from earlier work.
In data set [5] the test system is histomoniasis. The settings on record: cited from earlier work.

Entries after “also recorded” stand apart in the source; their conditions may differ.

We go through four compounds from patent US8293266B2, “Paromomycin-supplemented feed stuff for turkey and use thereof for prophylaxis of histomoniasis, reduction of the horizontal spreading of histomoniasis, and for improved weight gain and feed conversion” (Huvepharma AD, priority 2007, dated 2012).

In the case of `CC[C@@]1([C@@H]2O[C@@H]([C@H]3O[C@@](O)(CO)[C@H](C)C[C@@H]3C)C[C@@H]2C)CC[C@H]([C@]2(C)CC[C@]3(C[C@H](O)[C@@H](C)[C@@H]([C@@H](C)[C@@H](OC)[C@H](C)C(=O)O)O3)O2)O1` [monensin], in the data set with histomoniasis [1], the “effect with respect to histomoniasis” value was “no effect”.

`NC[C@@H]1O[C@H](O[C@H]2[C@@H](O)[C@H](O[C@@H]3[C@@H](O)[C@H](N)C[C@H](N)[C@H]3O[C@H]3O[C@H](CO)[C@@H](O)[C@H](O)[C@H]3N)O[C@@H]2CO)[C@H](N)[C@@H](O)[C@@H]1O` [paromomycin]: in data set [2], the “protection compared to the infected untreated group” value was “significant protection”. The protection to infection entry in data set [3] is on record as “significant protection”. In the data set on histomoniasis [4], the “effect on mortality and lesion scoring” value was “no effect on both mortality and lesion scoring”; the “use in-vivo as chemotherapeutic agent in broiler chickens” value is listed as “ineffective”. The “side effects due to the use of paromomycin” value in the data set on histomoniasis [5] (1000-2000 ppm in feed (dosage exceeding 1000 ppm)) is “certain toxicity effects; also recorded: lesions and hypertrophy of the liver”. Moreover, in the data set on histomoniasis [5] (fed continuously at 1000-2000 ppm in feed), the “mortality of infected birds” value was “reduced the mortality of infected birds”.

With `CC[C@@H](C(=O)[C@@H](C)[C@@H](O)[C@H](C)[C@@H]1O[C@@H]([C@@H](CC)C(=O)O)CC[C@@H]1C)[C@H]1O[C@]2(C=C[C@@H](O)[C@]3(CC[C@@](C)([C@H]4CC[C@](O)(CC)[C@H](C)O4)O3)O2)[C@H](C)C[C@@H]1C` [salinomycin], the “effect with respect to histomoniasis” value with histomoniasis [1] is listed as “no effect”.

Take `N#CC(c1ccc(Cl)cc1)c1c(Cl)cc(-n2ncc(=O)[nH]c2=O)cc1Cl` (stereo not drawn) [diclasuril]: the “effect with respect to histomoniasis” value in the data set with histomoniasis [1] is recorded as “no effect”.
